According to the NIST ThermoML archive (doi:10.1021/je200811n):

Settings: Hot wire method

F/C=C/C(F)(F)F [trans-1,3,3,3-tetrafluoropropene]
Settings | thermal conductivity [W/m/K]
262.32 K, 98 kPa, Gas | 0.01085
262.32 K, 15456 kPa, Liquid | 0.09473
262.36 K, 10416 kPa, Liquid | 0.09243
262.42 K, 488 kPa, Liquid | 0.08745
262.42 K, 5301 kPa, Liquid | 0.08997
262.42 K, 21223 kPa, Liquid | 0.09713
262.45 K, 15452 kPa, Liquid | 0.09456
262.49 K, 10417 kPa, Liquid | 0.09221
262.56 K, 488 kPa, Liquid | 0.08718
262.56 K, 5298 kPa, Liquid | 0.08972
262.61 K, 123 kPa, Gas | 0.01085
262.62 K, 107 kPa, Gas | 0.01086
262.63 K, 98 kPa, Gas | 0.01084
262.65 K, 80 kPa, Gas | 0.01085
262.67 K, 97 kPa, Gas | 0.01087
262.79 K, 21214 kPa, Liquid | 0.0972
262.84 K, 15455 kPa, Liquid | 0.09447
262.89 K, 10416 kPa, Liquid | 0.0922
262.96 K, 5304 kPa, Liquid | 0.0897
262.96 K, 21225 kPa, Liquid | 0.09681
262.98 K, 488 kPa, Liquid | 0.08717
262.99 K, 121 kPa, Gas | 0.0108
263 K, 15446 kPa, Liquid | 0.0942
263.01 K, 106 kPa, Gas | 0.01081
263.02 K, 97 kPa, Gas | 0.01085
263.04 K, 80 kPa, Gas | 0.01079
263.05 K, 98 kPa, Gas | 0.01086
263.06 K, 10416 kPa, Liquid | 0.09188
263.13 K, 5299 kPa, Liquid | 0.08937
263.16 K, 488 kPa, Liquid | 0.08692
263.36 K, 21219 kPa, Liquid | 0.09681
263.39 K, 119 kPa, Gas | 0.01089
263.4 K, 15447 kPa, Liquid | 0.0942
263.42 K, 104 kPa, Gas | 0.01088
263.43 K, 97 kPa, Gas | 0.01089
263.45 K, 80 kPa, Gas | 0.01089
263.45 K, 98 kPa, Gas | 0.01081
263.48 K, 10415 kPa, Liquid | 0.09186
263.55 K, 21219 kPa, Liquid | 0.09652
263.56 K, 5297 kPa, Liquid | 0.08933
263.59 K, 488 kPa, Liquid | 0.08681
263.6 K, 15455 kPa, Liquid | 0.09401
263.68 K, 10416 kPa, Liquid | 0.09153
263.77 K, 5291 kPa, Liquid | 0.08901
263.8 K, 488 kPa, Liquid | 0.08652
272.01 K, 173 kPa, Gas | 0.01193
272.22 K, 93 kPa, Gas | 0.01165
272.23 K, 118 kPa, Gas | 0.01168
272.23 K, 164 kPa, Gas | 0.01178
272.24 K, 170 kPa, Gas | 0.01181
272.27 K, 80 kPa, Gas | 0.01132
272.44 K, 180 kPa, Gas | 0.01146
272.47 K, 93 kPa, Gas | 0.01156
272.47 K, 117 kPa, Gas | 0.01157
272.47 K, 162 kPa, Gas | 0.01169
272.51 K, 78 kPa, Gas | 0.01132
272.73 K, 92 kPa, Gas | 0.01149
272.73 K, 159 kPa, Gas | 0.01161
272.74 K, 116 kPa, Gas | 0.0115
272.74 K, 177 kPa, Gas | 0.01151
272.76 K, 76 kPa, Gas | 0.01132
272.99 K, 157 kPa, Gas | 0.01156
273 K, 90 kPa, Gas | 0.01144
273.01 K, 114 kPa, Gas | 0.01146
273.03 K, 74 kPa, Gas | 0.01133
273.1 K, 175 kPa, Gas | 0.01153
273.28 K, 154 kPa, Gas | 0.01152
273.29 K, 89 kPa, Gas | 0.01139
273.3 K, 112 kPa, Gas | 0.01142
273.31 K, 73 kPa, Gas | 0.01134
273.47 K, 172 kPa, Gas | 0.01157
273.48 K, 166 kPa, Gas | 0.0116
273.58 K, 119 kPa, Gas | 0.01167
273.62 K, 94 kPa, Gas | 0.01167
273.64 K, 84 kPa, Gas | 0.01168
273.88 K, 163 kPa, Gas | 0.0116
274 K, 118 kPa, Gas | 0.01166
274.07 K, 93 kPa, Gas | 0.01171
274.08 K, 78 kPa, Gas | 0.01173
274.32 K, 160 kPa, Gas | 0.01166
274.45 K, 116 kPa, Gas | 0.01173
274.52 K, 92 kPa, Gas | 0.01174
274.54 K, 77 kPa, Gas | 0.01173
274.78 K, 158 kPa, Gas | 0.01168
274.92 K, 115 kPa, Gas | 0.01175
275.01 K, 91 kPa, Gas | 0.01175
275.03 K, 75 kPa, Gas | 0.01176
275.27 K, 155 kPa, Gas | 0.01171
275.43 K, 113 kPa, Gas | 0.01179
275.53 K, 90 kPa, Gas | 0.0118
275.55 K, 73 kPa, Gas | 0.01186
281.19 K, 491 kPa, Liquid | 0.08061
281.19 K, 20251 kPa, Liquid | 0.09143
281.22 K, 15223 kPa, Liquid | 0.08878
281.25 K, 10286 kPa, Liquid | 0.08621
281.25 K, 23293 kPa, Liquid | 0.09262
281.26 K, 20239 kPa, Liquid | 0.09104
281.27 K, 458 kPa, Liquid | 0.08057
281.27 K, 5355 kPa, Liquid | 0.08361
281.29 K, 15230 kPa, Liquid | 0.0886
281.32 K, 10282 kPa, Liquid | 0.08605
281.34 K, 5380 kPa, Liquid | 0.08336
281.37 K, 102 kPa, Gas | 0.01233
281.37 K, 144 kPa, Gas | 0.01241
281.37 K, 199 kPa, Gas | 0.01253
281.37 K, 244 kPa, Gas | 0.01266
281.57 K, 23287 kPa, Liquid | 0.09254
281.59 K, 243 kPa, Gas | 0.01263
281.59 K, 20208 kPa, Liquid | 0.09091
281.6 K, 199 kPa, Gas | 0.01245
281.61 K, 101 kPa, Gas | 0.01221
281.61 K, 142 kPa, Gas | 0.0123

Liquid
Settings | thermal conductivity [W/m/K]
263.15 K | 0.08688
273.15 K | 0.08321
